{"source": "patent US9358267B2", "about": "“High purity lipopeptides” (Cubist Pharmaceuticals LLC, priority 2000, dated 2016)", "key": {"[1]": {"test_system": "gram-positive organisms (susceptible and resistant strains)", "test": "in vitro antibacterial activity (MIC)", "assay_type": "cell-based", "method": "In addition, the minimum inhibitory concentration (MIC) value for daptomycin against susceptible strains is typically 4-fold lower than that of vancomycin. […] Thus, in a preferred embodiment, purified daptomycin, lipopeptide antibiotic, or pharmaceutical compositions thereof are administered according to the methods of this invention to a patient in need of rapidly acting antibiotic therapy."}, "[2]": {"test": "size of daptomycin micelles by light scatter (Zetasizer)", "assay_type": "physicochemical", "details": "for micelle size: 1 mg/mL, pH approximately 4.0 in water, light scatter", "method": "The daptomycin micelles have an average size of 5.4 nm (54 A).\nDaptomycin micelles were produced using daptomycin at a concentration of 1.0 mg/mL in water at pH 4.0 at 25° C. The size of a daptomycin micelle was measured using a Zetasizer™ (Malvern Instruments, Model 3000 HS). The count rate of 36.3, the cell type was a capillary cell, the detection angle (deg) was 90°, and the wavelength (nm) was 633."}, "[3]": {"test": "critical micellar concentration (cmc) of daptomycin", "assay_type": "physicochemical", "description": "Micelle formation causes changes in several bulk physical properties of a solution including changes in osmotic pressure, turbidity, electrical conductance, surface tension, co-ion and counterion activities (in the case of ionic, amphipathic molecules), refractive index, UV and NMR spectra, partial molar volume, viscosity, diffusion coefficient and dye solubilization. The cmc can be determined by measuring one or more of these micelle-dependent physical properties as a function of concentration of the amphipathic molecule. The size and shape of micelles can be determined by dynamic laser light scattering, ultracentrifugation, viscosity and/or low-angle X-ray scattering experiments. Micelles can also exist in liquid crystal phases.\nIn another embodiment of the invention, the pH of a solution comprising a lipopeptide is manipulated to influence the cmc of the lipopeptide. In a preferred embodiment, the lipopeptide is daptomycin or a daptomycin-related molecule, such as those described supra. In an even more preferred embodiment, the lipopeptide is daptomycin. In one embodiment, the pH is manipulated so that the concentration of a lipopeptide is higher than the cmc at one pH and is lower than the cmc at another pH. For instance, for daptomycin, the cmc at pH 4.0 in water at a temperature of 20-25° C. was much lower than at pH 6.0 or 7.5. […]"}}, "data": [{"smiles": "CCCCCCCCCC(=O)N[C@@H](Cc1c[nH]c2ccccc12)C(=O)N[C@H](CC(N)=O)C(=O)N[C@@H](CC(=O)O)C(=O)N[C@@H]1C(=O)NCC(=O)N[C@@H](CCCN)C(=O)N[C@@H](CC(=O)O)C(=O)N[C@H](C)C(=O)N[C@@H](CC(=O)O)C(=O)NCC(=O)N[C@H](CO)C(=O)N[C@@H]([C@H](C)CC(=O)O)C(=O)N[C@@H](CC(=O)c2ccccc2N)C(=O)O[C@@H]1C", "note": "[daptomycin]", "values": [{"measurement": "antibacterial activity against classically resistant strains relative to classically susceptible strains", "setting": "[1]; in vitro experiments", "result": "comparable"}, {"measurement": "MIC, fold lower than that of vancomycin", "setting": "[1]; susceptible strains", "result": "~4", "unit": "fold"}, {"measurement": "diameter of the micelle", "setting": "[2]; 1.0 mg/mL in water, pH 4.0, 25° C., Zetasizer", "result": 54, "unit": "A"}, {"measurement": "micelle size", "setting": "[2]", "result": 5.4, "unit": "nm"}, {"measurement": "micelle size", "setting": "[2]; listed as Daptomycin", "result": "approximately 5.4 nm"}, {"measurement": "aggregation state (monomeric or micellar)", "setting": "[3]; 150 mg/mL daptomycin, pH 6.5, 150 mM to 300 mM NaCl, 4° C.", "result": "monomeric"}, {"measurement": "critical micellar concentration (cmc)", "setting": "[3]; pH 4.0 in water, 20-25° C.", "result": "approximately 400 μg/mL"}]}]}
